Where two headings read alike, the source gives them in different places. Where only a bound is given, the exact number is not on record here.

The subject of data set [1] is ERK phosphorylation (p-ERK) in PBMCs. The data set can be described thus: Blood PD: p-ERK in ex vivo PMA-stimulated PBMCs (capillary western). As to conditions: Sus scrofa, PBMC, all minipigs (WT and NF1), 2 to 5 h after single oral 7.3 mg/kg. Further details: species or system minipig. As to the method: WT (n = 8) and NF1 (n = 8) minipigs received a single human equivalent oral dose of 450 mg (7.3 mg/kg).
PD analysis in blood was performed as described in a previous study, with some modifications.[13] […] Samples were stimulated with phorbol 12-myristate 13-acetate (PMA) (200 nM) or phosphate-buffered saline for 10 min at 37°C within 1 h of being drawn. Red blood cells were removed using standard ammonium-chloride-potassium (ACK) lysis. Peripheral blood mononuclear cells (PBMCs) were snap-frozen as dry pellets and stored at −80°C until analysis. Protein lysates from PBMCs were prepared as described in a previous study.[13] For tissues, protein lysates were prepared by transferring ~[…] of snap frozen tissue to a 1.7-mL microfuge tube containing radioimmunoprecipitation lysis buffer with protease and phosphatase inhibitors. The samples were then homogenized using a rotor-stator homogenizer for 2–4 cycles of 20 s and centrifuged for 10 min at 4°C. Concentrations were measured using the Pierce BCA Protein assay kit (Thermo #23227), according to the manufacturer’s instructions. […] Peaks of the appropriate molecular weight (42/44 kilodaltons) were detected in the resulting electropherograms and chemiluminescent signal was quantified by calculating the area under the peaks. The relative intensity of p-ERK to total ERK was then calculated as a ratio (p-ERK/ERK). […]

Data set [2] relates to ERK phosphorylation (p-ERK). The data set can be described thus: Tissue PD: p-ERK/ERK by capillary western (Wes). As to conditions: for inhibition at 7.3 mg/kg: Sus scrofa, po; for p-ERK Inhibition: ND = Not detected. Format: in vivo, minipig. The protocol: (§1) WT (n = 8) and NF1 (n = 8) minipigs received a single human equivalent oral dose of 450 mg (7.3 mg/kg). Untreated WT (n = 4) and NF1 (n = 4) minipigs were also enrolled as controls. All animals were euthanized 2 h after drug administration. Tissue samples were collected from each animal at the same approximate locations and divided for analysis.
PD analysis in blood was performed as described in a previous study, with some modifications.[13] […] Samples were stimulated with phorbol 12-myristate 13-acetate (PMA) (200 nM) or phosphate-buffered saline for 10 min at 37°C within 1 h of being drawn. Red blood cells were removed using standard ammonium-chloride-potassium (ACK) lysis. Peripheral blood mononuclear cells (PBMCs) were snap-frozen as dry pellets and stored at −80°C until analysis. Protein lysates from PBMCs were prepared as described in a previous study.[13] For tissues, protein lysates were prepared by transferring ~[…] of snap frozen tissue to a 1.7-mL microfuge tube containing radioimmunoprecipitation lysis buffer with protease and phosphatase inhibitors. The samples were then homogenized using a rotor-stator homogenizer for 2–4 cycles of 20 s and centrifuged for 10 min at 4°C. Concentrations were measured using the Pierce BCA Protein assay kit (Thermo #23227), according to the manufacturer’s instructions. A capillary western blot assay was performed on a Wes system (ProteinSimple 004–600) according to the manufacturer’s instructions using a 12–230 kDa Separation Module (ProteinSimple SM-W004) and Anti-Rabbit Detection Module (ProteinSimple DM-001). Lysates were loaded at 1 mg/mL and instrument default settings were used. Primary antibodies against Phospho-p44/42 ERK1/2 (p-ERK) (Cell Signaling Technologies #4370S) and p44/42 ERK1/2 (ERK) (Cell Signaling Technologies #4695S) were used at 1:100 dilution. Peaks of the appropriate molecular weight (42/44 kilodaltons) were detected in the resulting electropherograms and chemiluminescent signal was quantified by calculating the area under the peaks. The relative intensity of p-ERK to total ERK was then calculated as a ratio (p-ERK/ERK). To discriminate low p-ERK signals from background, the peak signal-to-noise (S/N) ratio given by the software was ≥10, and the peak height/baseline ratio was ≥3.[27]

For the next data set, the system named is DUSP6 and FOS. Kind of data set: Transcript biomarkers of MEK inhibition in tissues (RT-PCR). It is filed as in vivo, minipig. The note with it: skin, sciatic nerve, optic nerve and cerebral cortex of all treated minipigs, 2 h after single oral 7.3 mg/kg. As to the method: as §1
For RNA profiling, tissues were homogenized using ceramic homogenizers (Agilent 5982–9311) and a Beadblaster 24 (Benchmark D2400) for 3 cycles of 30 s each. RNA was extracted from all tissues using the RNeasy Mini kit (QIAGEN 74104) and RNA concentration and quality was measured by NanoDrop (Thermo). Analysis of transcript biomarkers of MEK inhibition was performed using the Fluidigm platform by Reverse Transcription, preamplification with pooled primers and Real Time-PCR on the Juno and BioMark using the following pig TaqMan primers (DUSP6-Ss06941845_m1; FOS -Ss03390402_m1; normalized to the average of pig housekeeping genes (B2M/Ss03391154_m1; HPRT1/Ss03388274_m1; PPIA/Ss03394782_g1; RPL13A/Ss03376908_u1; UBC/Ss03374343_g1, TFRC/Ss03391240_m1). Data were then normalized to the average of the control untreated group from matching WT or NF1 background (Log2 fold change, -ddCt).

The conditions of data set [3]: cited from earlier work.
Setting [4] is: pediatric patients, 25 mg/m^2, plasma, median (range), ref 6.
Setting [5] is: pediatric patients, 25 mg/m^2, plasma, median (range), ref 7.

Broadly, the inhibition is the relative decrease from the control value, in per cent. Consider `Cn1cnc2c(F)c(Nc3ccc(Br)cc3Cl)c(C(=O)NOCCO)cc21` [selumetinib], for which the inhibition at 7.3 mg/kg is at most 90% in data set [1] (read-out: maximal inhibition of p-ERK in PBMCs); 60% in data set [1] (read-out: mean inhibition of p-ERK in PBMCs); 71% in data set [2] (2 h, NF1 minipigs, cerebral cortex, 2 h after single oral 7.3 mg/kg, vs untreated controls, change not significant, read-out: p-ERK Inhibition); 60% in data set [2] (2 h, NF1 minipigs, optic nerve, 2 h after single oral 7.3 mg/kg, vs untreated controls, read-out: p-ERK Inhibition); 60% in data set [2] (2 h, NF1 minipigs, sciatic nerve, 2 h after single oral 7.3 mg/kg, vs untreated controls, read-out: p-ERK Inhibition); 67% in data set [2] (2 h, WT minipigs, sciatic nerve, 2 h after single oral 7.3 mg/kg, vs untreated controls, read-out: p-ERK Inhibition). Moreover, the inhibition at 7.3 mg/kg in data set [2] (2 h, all minipigs (WT and NF1), 2 h after single oral 7.3 mg/kg, read-out: mean inhibition of p-ERK in sciatic nerve) stood at 64%; in data set [2] (2 h, all minipigs (WT and NF1), 2 h after single oral 7.3 mg/kg, read-out: mean inhibition of p-ERK in skin) it was 95%. For the same compound, the “p-ERK Inhibition” value in data set [2] (WT minipigs, cerebral cortex (subcortical white matter), 2 h after single oral 7.3 mg/kg, vs untreated controls) is given as “not observed”; in data set [2] (WT minipigs, optic nerve, 2 h after single oral 7.3 mg/kg, vs untreated controls), “not observed”. Also, in data set [2] (all minipigs (WT and NF1), 2 h after single oral 7.3 mg/kg, 7.3 mg/kg), the “mean inhibition of p-ERK in skin” value came out at 94%. For the same compound, the “p-ERK level in skin after selumetinib” value in data set [2] (all minipigs, single oral 7.3 mg/kg, 2 h, compared to untreated minipigs) is on record as “nearly undetectable levels”. The DUSP6 transcript expression entry with DUSP6 and FOS is “downregulated”. In addition, the FOS transcript expression entry in the data set on DUSP6 and FOS was “downregulated”. Besides, the “AUC0→∞” value in data set [3] (human, in vivo, 75 mg) is 4510 (19.2) hour × ng/mL; in data set [3] (setting [4]) it was 2520 (2341–3280) hour × ng/mL; in data set [3] (setting [5]) it was 3855 (1780–7250) hour × ng/mL. Also, the “AUC0-∞ (systemic exposure)” value was 4510 to 6335 ng·h/mL in data set [3] (human, in vivo) and 2520 to 3855 ng·h/mL in data set [3] (pediatric NF1 patients). Further, the “median maximum concentration (Cmax) in plasma” value in data set [3] (pediatric dose 25 mg/m^2) was 886 ng/mL. The Cmax in data set [3] (setting [4]) was 886 (790–1200) ng/mL; in data set [3] (setting [5]), 1400 (306–3570) ng/mL. In data set [3] (setting [4]), the T1/2 is on record as 6.5 (4.7–15.8) hours. For the same compound, the Tmax in data set [3] (setting [5]) is recorded as 1.4 (1.0–4.0) hours.

The values above are taken from article PMC8095338 (Neuro-oncology Advances, 2021).
